Results reported in paper PMC11674187, “Inhibitory Effects of Cenobamate on Multiple Human Cardiac Ion Channels and Possible Arrhythmogenic Consequences” (Biomolecules, 2024).
Several values for one entry are separate records, joined by “and”; a condition that tells them apart may be missing. Identical values can stand only once.

Test system: Ncyte® vCardiomyocytes
Assay: Amphotericin-perforated whole-cell recordings on hiPSC-CM (current clamp and voltage clamp)
Type: cell-based, human
Conditions: cenobamate 200 µM
Protocol: Experiments were performed on HEK293T cell lines with persistent/inducible expression of different human cardiac ion channel isoforms: hNav1.5 and hKv7.1 + minK (Anaxon AG, Bern, Switzerland), hCav1.2 (α1c + β2 + α2δ1) (B’SYS GmbH, Witterswil, Switzerland), and hKv11.1 (hERG) (Cytocentrics Bioscience GmbH, Rostock, Germany). The cell lines were grown in standard conditions (37 °C, 5% CO2, 90% humidity) in DMEM:F12 medium (D8900, Sigma-Aldrich, Burlington, MA, USA) buffered with 15 mM HEPES, containing 3.15 g/L D-glucose and 0.055 g/L sodium pyruvate, supplemented with 1.2 g/L sodium bicarbonate, 10% fetal bovine serum (F2442, Sigma-Aldrich, Burlington, MA, USA), 2 mM L-glutamine (G7513, Sigma-Aldrich, Burlington, MA, USA), 1% penicillin–streptomycin (P4333, Sigma-Aldrich, Burlington, MA, USA), and with specific antibiotics for selection of transfected cells or induction of gene expression according to manufacturers’ instructions. The medium was changed every 2–3 days and the cells were passed weekly upon detachment with trypsin–EDTA solution. All cell culture media and solutions were sterile filtered with 0.22 μm polyvinylidene fluoride filters. Ncyte® vCardiomyocytes (Ncardia, Leiden, The Netherlands) were cultured in 24-well plates precoated with bovine fibronectin, following manufacturer’s instructions. For the experiments, cardiomyocytes were detached as described previously and plated on ϕ 10 mm glass coverslips, like the other cell lines.
Experiments on Ncyte® vCardiomyocytes were performed via an amphotericin-perforated whole-cell approach, filling the pipettes with solution containing amphotericin B 300 µg/mL except for a small region near the tip that contained amphotericin-free solution. The voltage-clamp and current-clamp protocols were similar to those used in our previous studies; the following protocols were recorded in sequence before and at 3 min after application of cenobamate in the bath to a final concentration of 200 µM: • - Nav standard protocol: holding −90 mV, depolarizing step at −10 mV lasting 40 ms; • - Cav-Nav separation protocol: holding −80 mV, first step at −20 mV 200 ms, intermediate step at −40 mV 100 ms, second step at −50 mV to +50 mV 200 ms, in 10 mV increments in consecutive sweeps; • - hERG standard protocol: holding −70 mV, a brief preliminary step at −50 mV 100 ms, first step at +40 mV 2000 ms, second step at −120 mV/−50 mV 2000 ms (in consecutive sweeps); • - A double voltage ramp protocol: holding −80 mV, first ramp from −120 mV to +80 mV in 2000 ms, second ramp from +80 mV back to −120 mV in 2000 ms, sweeps repeated at 10 s intervals; • - A current-clamp protocol with external pacing: 3 current stimuli of 2 nA amplitude, duration 0.5 ms (up to 2.5 ms in some experiments) applied at 3 s intervals, first stimulus at 500 ms after start of recording; in cells with spontaneous pace-making, this phenomenon was suppressed by applying a steady hyperpolarizing current of −10 pA or −20 pA. […]

NC(=O)O[C@@H](Cn1ncnn1)c1ccccc1Cl [cenobamate]
%ICaL peak change, mean (Table S8) (hiPSC-CM): 35.16%
%INa peak change, mean (Table S8) (hiPSC-CM): 27.43%
%If change, mean (Table S8) (hiPSC-CM): 19.89%
APD90 ceno, mean (Table S8) (initial mean 1212.99 ms): 619.83 ms
average APD90 shortening (%APD90 change) (mean (SD), n = 5): 28.55% and 28.6 ± 13.5%
